Reference: PMC3878827, “Synthesis and biological characterisation of ^18F-SIG343 and ^18F-SIG353, novel and high selectivity σ2 radiotracers, for tumour imaging properties” (EJNMMI Research, 2013)
Each block holds one compound with its values, some of them ahead of it.

Key:
[1] = Biodistribution studies in A375 tumour-bearing mice; assay type: in vivo, Balb/C nude mice; conditions: for Biodistribution, Blood / Biodistribution, Brain / Biodistribution, Femur / Biodistribution, Heart / Biodistribution, Kidneys / Biodistribution, Liver / Biodistribution, Lungs / Biodistribution, Ovaries / Biodistribution, Pancreas / Biodistribution, Spleen / Biodistribution, Tumour: i.v., ± SEM, n = 5
Method: (§1) Female Balb/C nude mice aged 5 to 6 weeks old were obtained from the Animal Resource Centre (Perth, Australia). The animals were kept at a constant temperature of 22°C ± 2°C on a 12/12 h light/dark cycle with lights on at 09:00 am. Food and water were freely available. After a week of acclimatisation, mice were injected subcutaneously in the left flank with 1 × 10^6 A375 human amelanotic melanoma cells, in 100 μL of Ca^2+/Mg^2+-free phosphate buffered saline. The procedure was performed without anaesthetic. For in vivo studies, A375 tumour-bearing mice were used 26 days after tumour inoculation.
Tumour-bearing mice were used to examine the tissue distribution of radioactivity after intravenous injection into the tail vein of 1 MBq of ^18F-SIG343 or ^18F-SIG353 in 100 μL of saline. At 15, 30, 60, and 120 min post injection of the radiotracer, groups of mice (n = 5) were sacrificed by CO2 administration followed by cervical […] and dissection. Selected organs were weighed, and the radioactivity was measured using a γ-counter. The percentage of injected dose (%ID) was calculated by comparison with suitable dilutions of the injected dose. Radioactivity concentrations were expressed as percentage of injected dose per gram of wet tissue (%ID/g), assuming a uniform density of 1 g/cm^3. Data were corrected for the radioactivity decay and tail injected dose and normalised for the standard mouse body weight (20 g). The remaining activity in the carcass was also determined in order to obtain the total activity in the mouse (background activity) at each time point.
Selected tumour-to-organ (tumour-to-blood and tumour-to-muscle) uptake ratios (TORs), were calculated by dividing the tumour radioactivity concentration (%ID/g) by the radioactivity concentration in the respective organ at time t. Comparisons of organ radioactivity concentrations (%ID/g) and TORs in the biodistribution studies or %ID/cc in PET imaging studies between the two radiotracers were performed using separate unpaired, two-tailed Student's t tests, matched organs and time points.

[2] = molecular target: T1, σ2 receptor (Mus musculus, UniProt Q8VD00); assay: In vivo blocking studies in A375 tumour-bearing mice; design: species or system Balb/C nude mice; conditions: unlabelled SIG353-treated group, 1 mg/kg, 30 min p.i.
T1 construct: from tissue; host or cells: organs of Balb/C nude mice in vivo; tumour xenograft of A375 human amelanotic melanoma cells
T1 sequence (Q8VD00 1-176): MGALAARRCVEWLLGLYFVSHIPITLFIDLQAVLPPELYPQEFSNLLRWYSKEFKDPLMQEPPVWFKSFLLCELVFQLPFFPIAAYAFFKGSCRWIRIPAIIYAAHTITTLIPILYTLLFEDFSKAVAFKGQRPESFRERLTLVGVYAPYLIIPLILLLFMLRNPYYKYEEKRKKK
Method: as §1
Blocking studies were performed to investigate the specific uptake of the tracer via σ2 receptor mechanism. […] Control mice received saline only. Five minutes after injection of the blocking drug, ^18F-SIG343 or ^18F-SIG353 (1 MBq/100 μL of saline) was injected, and groups of mice (n = 5) were sacrificed 30 min post injection of the radiotracer. Organs were processed as described for the biodistribution study. Radioactivity concentrations in the organs in the treatment groups were compared to that measured in control mice.

Biodistribution, Blood ([1]; 15 min post injection): 0.9 ± 0.1 %ID/g
Biodistribution, Brain ([1]; 15 min post injection): 9.6 ± 0.2^ *** %ID/g
Biodistribution, Femur ([1]; 15 min post injection): 4.5 ± 0.4 %ID/g
Biodistribution, Heart ([1]; 15 min post injection): 5.5 ± 0.4 %ID/g
Biodistribution, Kidneys ([1]; 15 min post injection): 26.1 ± 0.6 %ID/g
Biodistribution, Liver ([1]; 15 min post injection): 16.0 ± 0.9^ ** %ID/g
Biodistribution, Lungs ([1]; 15 min post injection): 30.3 ± 1.2^ *** %ID/g
Biodistribution, Ovaries ([1]; 15 min post injection): 10.8 ± 1.8 %ID/g
Biodistribution, Pancreas ([1]; 15 min post injection): 42.9 ± 2.8^ * %ID/g
Biodistribution, Spleen ([1]; 15 min post injection): 14.6 ± 1.2 %ID/g
Biodistribution, Tumour ([1]; 15 min post injection): 3.1 ± 0.5 %ID/g
Biodistribution, Blood ([1]; 30 min post injection): 0.7 ± 0.04 %ID/g
Biodistribution, Brain ([1]; 30 min post injection): 8.8 ± 0.6^ *** %ID/g
Biodistribution, Femur ([1]; 30 min post injection): 4.3 ± 0.2 %ID/g
Biodistribution, Heart ([1]; 30 min post injection): 3.5 ± 0.2^ ** %ID/g
Biodistribution, Kidneys ([1]; 30 min post injection): 19.8 ± 0.9^ *** %ID/g
Biodistribution, Liver ([1]; 30 min post injection): 21.9 ± 0.8^ *** %ID/g
Biodistribution, Lungs ([1]; 30 min post injection): 17.4 ± 0.7^ *** %ID/g
Biodistribution, Ovaries ([1]; 30 min post injection): 14.0 ± 2.2 %ID/g
Biodistribution, Pancreas ([1]; 30 min post injection): 50.2 ± 2.0^ *** %ID/g
Biodistribution, Spleen ([1]; 30 min post injection): 15.2 ± 1.1^ * %ID/g
Biodistribution, Tumour ([1]; 30 min post injection): 3.0 ± 0.1^ * %ID/g
Biodistribution, Blood ([1]; 60 min post injection): 0.6 ± 0.1 %ID/g
Biodistribution, Brain ([1]; 60 min post injection): 7.1 ± 0.4^ *** %ID/g
Biodistribution, Femur ([1]; 60 min post injection): 3.8 ± 0.1 %ID/g
Biodistribution, Heart ([1]; 60 min post injection): 1.9 ± 0.04^ ** %ID/g
Biodistribution, Kidneys ([1]; 60 min post injection): 12.0 ± 0.6^ ** %ID/g
Biodistribution, Liver ([1]; 60 min post injection): 15.2 ± 1.1^ *** %ID/g
Biodistribution, Lungs ([1]; 60 min post injection): 9.9 ± 0.3^ *** %ID/g
Biodistribution, Ovaries ([1]; 60 min post injection): 13.5 ± 2.2 %ID/g
Biodistribution, Pancreas ([1]; 60 min post injection): 64.4 ± 3.5^ *** %ID/g
Biodistribution, Spleen ([1]; 60 min post injection): 12.8 ± 0.9^ *** %ID/g
Biodistribution, Tumour ([1]; 60 min post injection): 3.5 ± 0.3^ * %ID/g
Biodistribution, Blood ([1]; 120 min post injection): 0.4 ± 0.01 %ID/g
Biodistribution, Brain ([1]; 120 min post injection): 5.2 ± 0.7^ *** %ID/g
Biodistribution, Femur ([1]; 120 min post injection): 3.2 ± 0.1 %ID/g
Biodistribution, Heart ([1]; 120 min post injection): 1.1 ± 0.1 %ID/g
Biodistribution, Kidneys ([1]; 120 min post injection): 7.5 ± 0.4 %ID/g
Biodistribution, Liver ([1]; 120 min post injection): 19.8 ± 0.9^ * %ID/g
Biodistribution, Lungs ([1]; 120 min post injection): 5.0 ± 0.3 %ID/g
Biodistribution, Ovaries ([1]; 120 min post injection): 11.5 ± 1.4 %ID/g
Biodistribution, Pancreas ([1]; 120 min post injection): 61.7 ± 3.4^ *** %ID/g
Biodistribution, Spleen ([1]; 120 min post injection): 8.5 ± 0.2^ *** %ID/g
Biodistribution, Tumour ([1]; 120 min post injection): 3.9 ± 0.2 %ID/g
Tumour-to-blood uptake ratio ([1]; at 120 min): eight- to ninefold
Tumour-to-muscle uptake ratio ([1]; at 120 min): 4
SMILES: COc1cc2c(cc1OC)CN(CCCCN1C(=O)c3ccc([18F])cc3C1=O)CC2 [^18F-SIG343]

Increase (↑) of radiotracer uptake in pancreas versus control [2]: 37%
Biodistribution, Blood ([1]; 15 min post injection): 1.2 ± 0.03 %ID/g
Biodistribution, Brain ([1]; 15 min post injection): 4.4 ± 0.2 %ID/g
Biodistribution, Femur ([1]; 15 min post injection): 5.3 ± 0.3 %ID/g
Biodistribution, Heart ([1]; 15 min post injection): 4.5 ± 0.2 %ID/g
Biodistribution, Kidneys ([1]; 15 min post injection): 23.4 ± 2.0 %ID/g
Biodistribution, Liver ([1]; 15 min post injection): 23.5 ± 2.0 %ID/g
Biodistribution, Lungs ([1]; 15 min post injection): 17.4 ± 0.5 %ID/g
Biodistribution, Ovaries ([1]; 15 min post injection): 10.0 ± 0.9 %ID/g
Biodistribution, Pancreas ([1]; 15 min post injection): 56.4 ± 4.7 %ID/g
Biodistribution, Spleen ([1]; 15 min post injection): 15.7 ± 1.1 %ID/g
Biodistribution, Tumour ([1]; 15 min post injection): 3.8 ± 0.3 %ID/g
Biodistribution, Blood ([1]; 30 min post injection): 1.0 ± 0.1 %ID/g
Biodistribution, Brain ([1]; 30 min post injection): 2.3 ± 0.1 %ID/g
Biodistribution, Femur ([1]; 30 min post injection): 4.7 ± 0.2 %ID/g
Biodistribution, Heart ([1]; 30 min post injection): 2.5 ± 0.1 %ID/g
Biodistribution, Kidneys ([1]; 30 min post injection): 13.3 ± 0.8 %ID/g
Biodistribution, Liver ([1]; 30 min post injection): 33.0 ± 1.8 %ID/g
Biodistribution, Lungs ([1]; 30 min post injection): 8.6 ± 0.4 %ID/g
Biodistribution, Ovaries ([1]; 30 min post injection): 11.8 ± 1.5 %ID/g
Biodistribution, Pancreas ([1]; 30 min post injection): 72.8 ± 2.4 %ID/g
Biodistribution, Spleen ([1]; 30 min post injection): 12.0 ± 0.6 %ID/g
Biodistribution, Tumour ([1]; 30 min post injection): 3.8 ± 0.3 %ID/g
Biodistribution, Blood ([1]; 60 min post injection): 0.7 ± 0.02 %ID/g
Biodistribution, Brain ([1]; 60 min post injection): 1.3 ± 0.01 %ID/g
Biodistribution, Femur ([1]; 60 min post injection): 3.8 ± 0.2 %ID/g
Biodistribution, Heart ([1]; 60 min post injection): 1.7 ± 0.02 %ID/g
Biodistribution, Kidneys ([1]; 60 min post injection): 8.7 ± 0.3 %ID/g
Biodistribution, Liver ([1]; 60 min post injection): 32.6 ± 1.0 %ID/g
Biodistribution, Lungs ([1]; 60 min post injection): 6.1 ± 0.1 %ID/g
Biodistribution, Ovaries ([1]; 60 min post injection): 9.6 ± 1.5 %ID/g
Biodistribution, Pancreas ([1]; 60 min post injection): 94.3 ± 4.2 %ID/g
Biodistribution, Spleen ([1]; 60 min post injection): 7.7 ± 0.4 %ID/g
Biodistribution, Tumour ([1]; 60 min post injection): 4.6 ± 0.2 %ID/g
Biodistribution, Blood ([1]; 120 min post injection): 0.7 ± 0.03 %ID/g
Biodistribution, Brain ([1]; 120 min post injection): 0.8 ± 0.02 %ID/g
Biodistribution, Femur ([1]; 120 min post injection): 3.9 ± 0.1 %ID/g
Biodistribution, Heart ([1]; 120 min post injection): 1.3 ± 0.1 %ID/g
Biodistribution, Kidneys ([1]; 120 min post injection): 7.1 ± 0.2 %ID/g
Biodistribution, Liver ([1]; 120 min post injection): 24.1 ± 1.4 %ID/g
Biodistribution, Lungs ([1]; 120 min post injection): 4.7 ± 0.2 %ID/g
Biodistribution, Ovaries ([1]; 120 min post injection): 12.2 ± 3.1 %ID/g
Biodistribution, Pancreas ([1]; 120 min post injection): 119.2 ± 1.6 %ID/g
Biodistribution, Spleen ([1]; 120 min post injection): 5.5 ± 0.2 %ID/g
Biodistribution, Tumour ([1]; 120 min post injection): 4.8 ± 0.4 %ID/g
Tumour-to-blood uptake ratio ([1]; at 120 min): eight- to ninefold
SMILES: COc1cc2c(cc1OC)CN(CCCCCN1C(=O)c3ccc([18F])cc3C1=O)CC2 [^18F-SIG353]
